# According to PubChem BioAssay (NCI):
#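 Following 48 hours of exposure in 96-well plates, responses at five concentrations were used to interpolate endpoints linearly. The concentration for full growth arrest is given as TGI.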
# Assays:
# Test in all cases: NCI-60 cell line screen, 48 h
# A549 NSCLC = test system: A549 NSCLC
# HOP-62 NSCLC = test system: HOP-62 NSCLC
# OVCAR-3 ovarian = test system: OVCAR-3 ovarian
# SNB-19 CNS = test system: SNB-19 CNS
# IGROV1 ovarian = test system: IGROV1 ovarian
# ACHN renal = test system: ACHN renal
# MALME-3M melanoma = test system: MALME-3M melanoma
# PC-3 prostate = test system: PC-3 prostate
# MCF7 breast = test system: MCF7 breast
# MOLT-4 leukemia = test system: MOLT-4 leukemia
# NCI-H226 lung = test system: NCI-H226 lung
# RXF 393 renal = test system: RXF 393 renal
# CAKI-1 renal = test system: CAKI-1 renal
# HCT-116 colon = test system: HCT-116 colon
# HT29 colon = test system: HT29 colon
# UACC-62 melanoma = test system: UACC-62 melanoma
# SK-MEL-5 melanoma = test system: SK-MEL-5 melanoma
# SR leukemia = test system: SR leukemia
# MDA-MB-231 breast = test system: MDA-MB-231 breast
# T-47D breast = test system: T-47D breast
SMILES,TGI (A549 NSCLC),TGI (HOP-62 NSCLC),TGI (OVCAR-3 ovarian),TGI (SNB-19 CNS),TGI (IGROV1 ovarian),TGI (ACHN renal),TGI (MALME-3M melanoma),TGI (PC-3 prostate),TGI (MCF7 breast),TGI (MOLT-4 leukemia),TGI (NCI-H226 lung),TGI (RXF 393 renal),TGI (CAKI-1 renal),TGI (HCT-116 colon),TGI (HT29 colon),TGI (UACC-62 melanoma),TGI (SK-MEL-5 melanoma),TGI (SR leukemia),TGI (MDA-MB-231 breast),TGI (T-47D breast)
Oc1cc(O)c2ccc(-c3ccc(O)c(O)c3)[o+]c2c1,> 100 µM,> 100 µM,> 100 µM,> 100 µM,> 100 µM,> 100 µM,> 100 µM,> 100 µM,> 100 µM,> 100 µM,> 100 µM,> 100 µM,> 100 µM,> 100 µM,> 100 µM,> 100 µM,–,–,–,–
O=C(CC(CC(=O)Oc1c(Br)cc(Br)cc1C(=O)O)C(=O)Oc1c(Br)cc(Br)cc1C(=O)O)Oc1c(Br)cc(Br)cc1C(=O)O,> 100 µM,> 100 µM,> 100 µM,> 100 µM,87.3 µM,> 100 µM,> 100 µM,–,–,> 100 µM,57 µM,–,> 100 µM,> 100 µM,> 100 µM,> 100 µM,> 100 µM,–,–,–
COc1ccc(NC(=S)N/N=C\c2ccc(NC(C)=O)cc2)cc1,> 100 µM,> 100 µM,> 100 µM,> 100 µM,> 100 µM,> 100 µM,> 100 µM,> 100 µM,–,> 100 µM,–,–,> 100 µM,> 100 µM,> 100 µM,> 100 µM,> 100 µM,> 100 µM,> 100 µM,> 100 µM
CCc1c(CN)c(CC)c(CNC2=NCCN2)c(CC)c1CNC1=NCCN1,> 100 µM,> 100 µM,> 100 µM,> 100 µM,> 100 µM,> 100 µM,> 100 µM,> 100 µM,> 100 µM,> 100 µM,> 100 µM,> 100 µM,> 100 µM,> 100 µM,> 100 µM,> 100 µM,> 100 µM,> 100 µM,–,> 100 µM
COc1cc2nc(Nc3cccc(Br)c3)nc(Nc3cccc(Br)c3)c2cc1OC,32.6 µM,33.6 µM,31.2 µM,32.3 µM,30.1 µM,29.4 µM,34.7 µM,41.6 µM,32.4 µM,47.2 µM,–,33.7 µM,29.8 µM,31.4 µM,34.8 µM,32.8 µM,30.7 µM,–,39.7 µM,43.7 µM
C(/C=C/c1ccccc1)=Nc1ccc2c(c1)Cc1ccccc1-2,> 100 µM,> 100 µM,> 100 µM,> 100 µM,> 100 µM,> 100 µM,> 100 µM,> 100 µM,–,95 µM,> 100 µM,> 100 µM,> 100 µM,> 100 µM,> 100 µM,> 100 µM,> 100 µM,90.4 µM,> 100 µM,> 100 µM
Nc1ccc2nc3c(nc2c1)C(=O)c1ccccc1-3,> 100 µM,> 100 µM,> 100 µM,> 100 µM,> 100 µM,> 100 µM,> 100 µM,> 100 µM,> 100 µM,> 100 µM,> 100 µM,> 100 µM,–,> 100 µM,> 100 µM,> 100 µM,> 100 µM,–,> 100 µM,> 100 µM
CCOP(=O)(C=C=C1CCC2[C@@H]3CCc4cc(OC)ccc4C3CC[C@]12C)OCC (some centres undefined),18.4 µM,30 µM,24.2 µM,28.3 µM,23.6 µM,21.9 µM,30.3 µM,15 µM,20.7 µM,–,21.6 µM,14.8 µM,26.6 µM,19.2 µM,17.7 µM,18.2 µM,14.2 µM,–,–,26.6 µM
O=C(O)CSCc1cc2c(O)c(c1)Cc1cc(CSCC(=O)O)cc(c1O)Cc1cc(CSCC(=O)O)cc(c1O)Cc1cc(CSCC(=O)O)cc(c1O)C2,> 100 µM,> 100 µM,> 100 µM,> 100 µM,> 100 µM,> 100 µM,> 100 µM,> 100 µM,> 100 µM,> 100 µM,> 100 µM,> 100 µM,> 100 µM,> 100 µM,> 100 µM,–,–,> 100 µM,–,> 100 µM
CC(=O)C1C(=O)C(=O)N(c2ccccc2)C1=O (centres undefined),> 100 µM,> 100 µM,> 100 µM,> 100 µM,> 100 µM,> 100 µM,–,> 100 µM,> 100 µM,> 100 µM,> 100 µM,> 100 µM,> 100 µM,> 100 µM,> 100 µM,> 100 µM,> 100 µM,–,> 100 µM,–
FC(F)(F)c1ccc(Cc2nc3cc4ccccc4cc3[nH]2)cc1,> 100 µM,> 100 µM,> 100 µM,> 100 µM,> 100 µM,> 100 µM,> 100 µM,> 100 µM,> 100 µM,–,> 100 µM,> 100 µM,> 100 µM,> 100 µM,> 100 µM,> 100 µM,> 100 µM,–,> 100 µM,> 100 µM
CCOc1ccc(N/C(=C(/C(Cl)=C(/Cl)Nc2ccccc2)[N+](=O)[O-])n2nnc3ccccc32)cc1,> 100 µM,70.3 µM,80.8 µM,> 100 µM,–,> 100 µM,44.4 µM,58.4 µM,> 100 µM,> 100 µM,> 100 µM,–,60.4 µM,56 µM,–,43.5 µM,37 µM,–,58.1 µM,> 100 µM
Oc1ccc([Te]CCNCC[Te]c2ccc(O)cc2)cc1,16.6 µM,46.5 µM,–,> 100 µM,> 100 µM,94.8 µM,69.3 µM,–,–,> 100 µM,46.4 µM,–,> 100 µM,28.4 µM,> 100 µM,45.8 µM,26.4 µM,> 100 µM,–,–
NC1=NC2=c3ccccc3=C(c3cnccn3)C2(c2cnccn2)c2ccccc21 (centres undefined),> 100 µM,> 100 µM,81.4 µM,> 100 µM,> 100 µM,> 100 µM,> 100 µM,–,–,95.8 µM,> 100 µM,> 100 µM,> 100 µM,> 100 µM,> 100 µM,> 100 µM,> 100 µM,> 100 µM,–,–
Clc1ccc(Nc2nnc(CCCCCCCCc3nnc(Nc4ccc(Cl)cc4)o3)o2)cc1,89.8 µM,> 100 µM,–,> 100 µM,> 100 µM,> 100 µM,> 100 µM,> 100 µM,> 100 µM,> 100 µM,> 100 µM,–,> 100 µM,34.5 µM,> 100 µM,78.4 µM,64.2 µM,–,> 100 µM,–
CC(C)(C)n1c(=O)n2n(c1=O)Cc1cccc3cccc(c13)C2,> 100 µM,33.2 µM,35.1 µM,> 100 µM,38.5 µM,44.7 µM,31.7 µM,30.5 µM,92.4 µM,93.8 µM,–,27.1 µM,36.9 µM,33.8 µM,39.7 µM,82.5 µM,> 100 µM,42.3 µM,> 100 µM,–
N#C[C@H](C(=O)c1ccccc1F)c1nc2ccccc2s1,> 100 µM,> 100 µM,63.7 µM,> 100 µM,> 100 µM,> 100 µM,56.2 µM,> 100 µM,–,96.1 µM,> 100 µM,> 100 µM,> 100 µM,61.3 µM,> 100 µM,> 100 µM,> 100 µM,–,> 100 µM,> 100 µM
COC(=O)[C@H](Cc1ccccc1)NC(=O)/C(=C/C(C)C)NC(=O)[C@H](CCSC)NC=O,> 100 µM,> 100 µM,> 100 µM,> 100 µM,> 100 µM,> 100 µM,–,–,–,> 100 µM,> 100 µM,> 100 µM,> 100 µM,> 100 µM,> 100 µM,> 100 µM,> 100 µM,> 100 µM,–,–
CCCCCCCCOCC(O)COC(C)C (centres undefined),> 100 µM,> 100 µM,32.9 µM,> 100 µM,> 100 µM,> 100 µM,> 100 µM,–,–,45 µM,> 100 µM,–,> 100 µM,> 100 µM,> 100 µM,> 100 µM,> 100 µM,40.2 µM,–,–
CC1(C)CC(=O)C(/C=N/C(N)=S)=C(O)C1,> 100 µM,> 100 µM,> 100 µM,> 100 µM,> 100 µM,> 100 µM,–,> 100 µM,> 100 µM,> 100 µM,> 100 µM,> 100 µM,> 100 µM,> 100 µM,> 100 µM,> 100 µM,> 100 µM,–,> 100 µM,–
O=C(C=C1SCCS1)/C=C\c1ccc(Cl)cc1,> 100 µM,> 100 µM,> 100 µM,> 100 µM,> 100 µM,–,> 100 µM,–,–,> 100 µM,> 100 µM,–,> 100 µM,> 100 µM,> 100 µM,> 100 µM,> 100 µM,> 100 µM,–,–
CC(=O)OC1CC2CCN3C(=O)c4cc5c(cc4[C@H](C1OC(C)=O)C23)OCO5 (some centres undefined),> 100 µM,> 100 µM,> 100 µM,> 100 µM,> 100 µM,> 100 µM,> 100 µM,–,–,> 100 µM,> 100 µM,> 100 µM,–,> 100 µM,> 100 µM,> 100 µM,–,> 100 µM,–,–
COc1ccccc1C1C(Cl)C(=O)N1n1cnc2ccccc2c1=O (centres undefined),> 100 µM,> 100 µM,> 100 µM,> 100 µM,> 100 µM,> 100 µM,> 100 µM,–,–,> 100 µM,> 100 µM,> 100 µM,> 100 µM,> 100 µM,> 100 µM,> 100 µM,> 100 µM,> 100 µM,–,–
O=C(Cn1cc(-c2ccccc2)nn1)NC1CCCCC1,> 100 µM,> 100 µM,–,> 100 µM,> 100 µM,> 100 µM,> 100 µM,> 100 µM,> 100 µM,> 100 µM,> 100 µM,–,> 100 µM,> 100 µM,> 100 µM,–,> 100 µM,> 100 µM,> 100 µM,–
CC(C)C1OC(N)=C(C#N)C1(C#N)C#N (centres undefined),> 100 µM,> 100 µM,–,> 100 µM,> 100 µM,> 100 µM,> 100 µM,> 100 µM,> 100 µM,–,> 100 µM,> 100 µM,13.5 µM,> 100 µM,> 100 µM,> 100 µM,> 100 µM,–,> 100 µM,> 100 µM
C1=NCCN2CCN(CCN=Cc3ccccc3OCc3cccc(n3)COc3ccccc31)CC2,> 50 µM,> 50 µM,4.66 µM,> 50 µM,37.2 µM,25.6 µM,32.4 µM,> 50 µM,9.29 µM,34.3 µM,–,4.68 µM,–,18.8 µM,18.5 µM,7.8 µM,–,15.4 µM,34 µM,–
Nc1ccccc1Nc1ccccc1C(=O)[O-].Nc1ccccc1Nc1ccccc1C(=O)[O-].[Zn+2],> 100 µM,> 100 µM,61 µM,> 100 µM,> 100 µM,> 100 µM,> 100 µM,–,–,> 100 µM,–,–,> 100 µM,> 100 µM,> 100 µM,68.2 µM,> 100 µM,–,–,–
Cc1ccc(/C=N/n2c(Cc3ccccc3)n[nH]c2=O)cc1,> 100 µM,> 100 µM,> 100 µM,> 100 µM,> 100 µM,> 100 µM,> 100 µM,> 100 µM,–,> 100 µM,> 100 µM,> 100 µM,> 100 µM,> 100 µM,> 100 µM,–,> 100 µM,> 100 µM,> 100 µM,> 100 µM
